# Assay results published in patent US5602106A, “16-membered macrolide derivatives” (priority 1993, dated 1997).
# Where two headings read alike, the source gives them in different places.
# Columns and labels:
# Format in all cases: cell-based
# B. catarrhalis W-0500 = assay: MIC, agar plate dilution method; settings: Moraxella catarrhalis
# Protocol: (§1) The effect of the first aspect of the present invention resides in the creation of a novel and useful 16-membered macrolide derivative. Antimicrobial activities of the compounds of the present invention were determined by measuring minimum inhibitory concentration (MIC). Minimum inhibitory concentration was determined by the agar plate dilution method in the following manner.
# (§2) Test strains were subjected to seed culture using Sensitivity test broth (STB, Nissui Pharmaceutical) except that the strains belonging to the genus Streptococcus, Branhamella and Haemophilus were cultured on blood agar plate. A 5 μl portion of cell suspension of the test strains having about 10^6 CFU/ml was inoculated into Sensitivity disk agar (SDA, Nissui Pharmaceutical) supplemented with 5% horse blood and incubated at 37° C. for 20 hours. Then, MIC was measured. […] Antimicrobial activities in vitro of the compounds (1) and (2) are shown in Table 1, and those of the compounds (3) and (4) in Table 3.
# B. catarrhalis W-0506 = assay: MIC, agar plate dilution method; settings: Moraxella catarrhalis
# Protocol: as §1, §2
# E. coli NIHJ JC-2 = assay: MIC, agar plate dilution method; settings: Escherichia coli, NIHJJC2, 20 h, 37° C., SDA with 5% horse blood, read-out: Antimicrobial activity (MIC)
# Protocol: as §1, §2
# E. faecalis W-73 = assay: MIC, agar plate dilution method; settings: Enterococcus faecalis, W73, 20 h, read-out: Antimicrobial activity (MIC)
# Protocol: as §1, §2
# H. influenzae Type b = assay: MIC, agar plate dilution method; settings: Haemophilus influenzae, 20 h, read-out: Antimicrobial activity (MIC), 37° C., 20 hours, SDA with 5% horse blood
# Protocol: as §1, §2
# K. pneumoniae PCI602 = assay: MIC, agar plate dilution method; settings: Klebsiella pneumoniae, PCI602, 20 h, 37° C., SDA with 5% horse blood, read-out: Antimicrobial activity (MIC)
# Protocol: as §1, §2
# M. luteus ATCC9341 = assay: MIC, agar plate dilution method; settings: Micrococcus luteus, ATCC9341; 37° C., 20 hours, SDA with 5% horse blood; read-out: Antimicrobial activity (MIC)
# Protocol: as §1, §2
# S. aureus 209P JC-1 = assay: MIC, agar plate dilution method; settings: Staphylococcus aureus, 209P, 20 h
# Protocol: as §1, §2
# S. aureus M126 = assay: MIC, agar plate dilution method; settings: Staphylococcus aureus, 37° C., 20 hours, SDA with 5% horse blood, read-out: Antimicrobial activity (MIC)
# Protocol: as §1, §2
# S. aureus M133 = assay: MIC, agar plate dilution method; settings: Staphylococcus aureus, M133, 20 h
# Protocol: as §1, §2
# S. aureus MS15009/pMS98 = assay: MIC, agar plate dilution method; settings: Staphylococcus aureus, MS15009/PMS98, 20 h, read-out: Antimicrobial activity (MIC), 37° C., 20 hours, SDA with 5% horse blood
# Protocol: as §1, §2
# S. aureus MS15009/pMS99 = assay: MIC, agar plate dilution method; settings: Staphylococcus aureus, MS15009/PMS99, 20 h, read-out: Antimicrobial activity (MIC)
# Protocol: as §1, §2
# S. aureus MS15026 = assay: MIC, agar plate dilution method; settings: Staphylococcus aureus, 37° C., 20 hours, SDA with 5% horse blood, read-out: Antimicrobial activity (MIC)
# Protocol: as §1, §2
# S. aureus MS15027 = assay: MIC, agar plate dilution method; settings: Staphylococcus aureus, MS15027, 20 h, read-out: Antimicrobial activity (MIC), 37° C., 20 hours, SDA with 5% horse blood
# Protocol: as §1, §2
# S. epidermidis ATCC14990 = assay: MIC, agar plate dilution method; settings: Staphylococcus epidermidis
# Protocol: as §1, §2
# S. pneumoniae IP692 = assay: MIC, agar plate dilution method; settings: Streptococcus pneumoniae, IP692, 20 h, 37° C., 20 hours, SDA with 5% horse blood; read-out: Antimicrobial activity (MIC)
# Protocol: as §1, §2
# S. pneumoniae Type 1 = assay: MIC, agar plate dilution method; settings: Streptococcus pneumoniae, TYPE1; 37° C., 20 hours, SDA with 5% horse blood; read-out: Antimicrobial activity (MIC)
# Protocol: as §1, §2
# S. pyogenes Cook = assay: MIC, agar plate dilution method; settings: Streptococcus pyogenes; 37° C., 20 hours, SDA with 5% horse blood; read-out: Antimicrobial activity (MIC)
# Protocol: as §1, §2
# test strains = assay: Antimicrobial activity in vitro, test strains overall; settings: for antimicrobial activities compared with compound (58): vs compound (58); for antimicrobial activities in comparison with rokitamycin: vs rokitamycin
# Protocol: as §1, §2
# [1] = tested on: clinically important Gram-positive bacteria; assay: Antimicrobial activity / growth inhibition
# Protocol: as §1, §2
# H. influenzae 9334 = assay: MIC, agar plate dilution method; settings: Haemophilus influenzae, 9334, 20 h, read-out: Antimicrobial activity (MIC), 37° C., 20 hours, SDA with 5% horse blood
# Protocol: as §1, §2
# [2] = read-out: Antimicrobial activity (MIC), 37° C., 20 hours, SDA with 5% horse blood
# [3] = 37° C., 20 hours, SDA with 5% horse blood, read-out: Antimicrobial activity (MIC)
# [4] = W0500, 20 h, read-out: Antimicrobial activity (MIC), 37° C., 20 hours, SDA with 5% horse blood
# [5] = W0506, 20 h, read-out: Antimicrobial activity (MIC), 37° C., 20 hours, SDA with 5% horse blood
# [6] = ATCC14990, 20 h, read-out: Antimicrobial activity (MIC), 37° C., 20 hours, SDA with 5% horse blood
SMILES,MIC (E. coli NIHJ JC-2),MIC (E. faecalis W-73),MIC (H. influenzae Type b),MIC (K. pneumoniae PCI602),MIC (M. luteus ATCC9341),MIC (S. aureus M126),MIC (S. aureus MS15009/pMS98),MIC (S. aureus MS15009/pMS99),MIC (S. aureus MS15026),MIC (S. aureus MS15027),MIC (S. pneumoniae IP692),MIC (S. pneumoniae Type 1),MIC (S. pyogenes Cook),antimicrobial activities (in words) [1],MIC (B. catarrhalis W-0500; [4]),MIC (B. catarrhalis W-0506; [5]),MIC (H. influenzae 9334),MIC (S. aureus 209P JC-1; [3]),MIC (S. aureus M133; [2]),MIC (S. epidermidis ATCC14990; [6]),further results
"CCC(=O)O[C@@H]1CC(=O)O[C@H](C)C/C=C/C=C/[C@H](O)[C@H](C)C[C@H](CC=O)[C@H](O[C@@H]2O[C@H](C)[C@@H](O[C@H]3C[C@@](C)(OC)[C@@H](O)[C@H](C)O3)[C@H](N(C)C)[C@H]2O)[C@H]1OC [(3), 3""-O-methylmidecamycin M1]",> 100 µg/mL,0.78 µg/mL,50 µg/mL,> 100 µg/mL,0.1 µg/mL,> 100 µg/mL,0.78 µg/mL,> 100 µg/mL,> 100 µg/mL,0.78 µg/mL,0.1 µg/mL,0.1 µg/mL,0.2 µg/mL,strong antimicrobial activities,,,,,,,"MIC (B. catarrhalis W-0500; W0500, 37° C., 20 hours, SDA with 5% horse blood, read-out: Antimicrobial activity (MIC)): 3.13 µg/mL; MIC (B. catarrhalis W-0506; W0506, 37° C., 20 hours, SDA with 5% horse blood, read-out: Antimicrobial activity (MIC)): 3.13 µg/mL; MIC (S. aureus 209P JC-1; [2]): 0.39 µg/mL; MIC (S. aureus M133; [3]): 1.56 µg/mL; MIC (S. epidermidis ATCC14990; ATCC14990, 37° C., 20 hours, SDA with 5% horse blood, read-out: Antimicrobial activity (MIC)): 1.56 µg/mL; improvement of MIC values over corresponding compounds with free 3""-hydroxyl (midecamycin M1, leucomycin V) (test strains; most of the test strains): improved two to three times; antimicrobial activities in comparison with midecamycin M1 (test strains; presumed in vivo metabolite of compound (5)): superior antimicrobial activities"
"CCCCC(=O)O[C@H]1[C@H](C)O[C@@H](O[C@H]2[C@H](N(C)C)[C@@H](O)[C@H](O[C@H]3[C@@H](CC=O)C[C@@H](C)[C@@H](O)/C=C/C=C/C[C@@H](C)OC(=O)C[C@@H](O)[C@@H]3OC)O[C@@H]2C)C[C@@]1(C)OC [(48), 3""-O-methyl-4""-O-n-valerylleucomycin V]",> 100 µg/mL,0.78 µg/mL,6.25 µg/mL,> 100 µg/mL,< 0.025 µg/mL,> 100 µg/mL,0.2 µg/mL,> 100 µg/mL,> 100 µg/mL,0.2 µg/mL,< 0.025 µg/mL,< 0.025 µg/mL,< 0.025 µg/mL,markedly strong microbial activities,0.1 µg/mL,0.2 µg/mL,0.78 µg/mL,0.05 µg/mL,0.2 µg/mL,0.2 µg/mL,antimicrobial activities compared with compound (58) (test strains): slightly superior antimicrobial activities; antimicrobial activities in comparison with rokitamycin (test strains): markedly excellent antimicrobial activities
"CO[C@@H]1[C@@H](O[C@@H]2O[C@H](C)[C@@H](O[C@H]3C[C@@](C)(OC)[C@@H](OC(=O)C(C)C)[C@H](C)O3)[C@H](N(C)C)[C@H]2O)[C@@H](CC=O)C[C@@H](C)[C@@H](O)/C=C/C=C/C[C@@H](C)OC(=O)C[C@H]1O [(53), 4""-O-isobutyryl-3""-Omethylleucomycin V]",> 100 µg/mL,0.78 µg/mL,6.25 µg/mL,> 100 µg/mL,< 0.025 µg/mL,> 100 µg/mL,0.2 µg/mL,> 100 µg/mL,> 100 µg/mL,0.2 µg/mL,< 0.025 µg/mL,< 0.025 µg/mL,< 0.025 µg/mL,markedly strong microbial activities,0.2 µg/mL,0.2 µg/mL,0.39 µg/mL,0.05 µg/mL,0.2 µg/mL,0.2 µg/mL,antimicrobial activities compared with compound (58) (test strains): slightly superior antimicrobial activities; antimicrobial activities in comparison with rokitamycin (test strains): markedly excellent antimicrobial activities
